Patent US20110034419A1, “Cardioprotective Drugs and Diagnostics for Assessing Risk of Cardiovascular Disease” (priority 2009, published 2011)

What was measured:
dermal fibroblasts = details: literature (Bu et al., 2006); cited from earlier work
[1] = system: Erk1/2 activation in HUVECs; test: Multiplex bead array assay of Erk1/2 phosphorylation; type: cell-based, human; details: for Inhibition of HDL-induced activation of Erk1/2 / Inhibition of S1P-induced activation of Erk1/2: PTX 100 ng/ml 12 h, 3 min; for Inhibition of HDL-induced activation of Erk1/2: antagonists added 15 min before HDL (containing 200 nM S1P); for Inhibition of S1P-induced activation of Erk1/2: antagonists added 15 min before S1P (200 nM)
Experimental: (§1) The effect of S1P and HDL on activation of Erk1/2 (A-D) and Akt (E-H) in HUVECs was determined by multiplex bead array assay. In A-D, the values for the fold difference in Erk1/2 phosphorylation were derived from the level of phosphoErk1/2 fluorescence in S1P or HDL treated cells divided by the level of phosphoErk1/2 fluorescence in control cells. In E-G, the values for the fold increase in Akt phosphorylation were derived from the level of phosphoAkt fluorescence in cells treated with S1P or HDL divided by the level of phosphoAkt fluorescence measured in control cells. The data depicted in panels A, C, E and G is based on treating HUVECs for the indicated times with 833 nM S1P or 333 μg/ml HDL (containing 133 nM S1P). The data depicted in panels B, D, F and H is based on treating HUVECs with indicated concentrations of S1P or HDL for 3 min. The level of S1P in the 3-fold dilutions of HDL tested in panel H ranged from 12-337 nM. Data are shown from a representative experiment.
(§2) In A and B, pertussis toxin (PTX, 100 ng/ml) or the PTX buffer was added to endothelial cell basal medium (EBM) during the final 12 h of serum starvation. BSA, S1P (200 nM) or HDL (containing 200 nM S1P) were then added to the medium and allowed to incubate with the cells for 3 min. In C and D, the S1P1 antagonist 857390 or the S1P1/S1P3 antagonist or vehicle were added to the medium 15 min prior to addition of S1P or HDL and allowed to incubate with the cells for 3 min. The graphed values were derived from the level of phosphoErk1/2 or phosphoAkt fluorescence in S1P- or HDL-treated cells divided by the level of phosphoErk1/2 or phosphoAkt fluorescence in BSA treated cells. Data are shown from representative experiments, antagonists and inhibitor experiments were performed 2-4 times (e.g. PTX, n=3; S1P1 antagonist, n=4; S1P1/S1P3 antagonist, n=2). Each data point is an average from two independent wells.
(§3) Approach: A bead-based multiplex assay will be used to determine changes in phosphorylated Erk1/2, phosphorylated Akt, and total Erk and total Akt in endothelial cells in response to treatments with HDLs from dislipidemic subjects and synthetic HDLs containing defined amounts of S1P. These assays will be conducted essentially as described by (1). Briefly, HUVECs will be seeded into 24 well dishes (Corning) at 2×10^5 cells per well and grown for 18 h in endothelial growth medium-2 (EGM-2, Lonza). The medium will then be replaced with endothelial basal medium (EBM) containing 0.1% FBS and the cells grown for 24 h. The medium will then be supplemented with HDL samples (i.e., CCHS subject serum-derived HDL freed of albumin- and apoB-containing lipoproteins) or synthetic HDLs (containing defined amounts of S1P). As described above, this will be done by removing a volume of the conditioned culture medium corresponding to that of the HDL to be added. The cells will be extracted with Bio-Plex cell lysis buffer (Bio-Rad, Hercules, Calif.) and protein concentration determined by Bio-Rad DC Protein Assay (Bio-Rad). Levels of phospho-Erk1/2, total-Erk1/2 and phospho-Akt in the extracts will be determined by multiplex bead assay using kits (Bio-Rad) and a Bioplex-200 instrument (Bio-Rad).

lung capillary leakage = details: mice, lipopolysaccharide treatment; literature (Peng et al.); cited from earlier work
[2] = system: endothelial cell monolayers (HUVECs); test: Electrical Cell Substrate Impedance Sensing (ECIS) assay of transendothelial electrical resistance (TEER); type: cell-based, human; details: for Inhibition of the TEER response to HDL / Inhibition of the TEER response to S1P: PTX 1 μg/ml, antagonists 10 μM; for Inhibition of the TEER response to HDL: HDL 1000 or 621 μg/ml; for Inhibition of the TEER response to S1P: S1P 833 nM or 250 nM
Experimental: Confluent endothelial monolayers were grown under serum-free conditions until a minimal TEER plateau had been reached. The cells were then incubated with S1P or HDL in the presence or absence of PTX (A and B) or S1P1 antagonists (C and D). In A and B, S1P was used at 833 nM, HDL at 1000 μg/ml (containing 400 nM S1P) and PTX at 1 μg/ml. In C and D, S1P was used at 250 nM, HDL at 621 μg/ml (containing 250 nM S1P), the S1P1 antagonist 857390 at 10 μM and the S1P1/S1P3 antagonist VPC23019 at 10 μM. As controls, monolayers were treated with BSA-containing serum free medium (SFM) plus or minus vehicle buffer. Each of the TEER tracings shown is an average of two replicate wells and representative of three independent experiments. Impedance values were normalized by dividing each value by the level of impedance measured just prior to the addition of effectors. […]
ECIS: Electrical cell substrate impedance sensing (ECIS) assays will be conducted essentially as described in (1). Briefly, 8W10E+ electrode arrays will be pre-coated with human fibronectin (Invitrogen, Carlsbad, Calif.) at 100 μg/ml in 0.15M NaCl, 0.01M Tris, pH 8.0. HUVECs in EGM-2 medium will be seeded into the wells at a density of 1×10^5 cells per well. Electrical resistance (impedance) will be measured every […] at a frequency of 15 kHz. For every 48 h of culture, 50% volume of medium will be replaced with fresh EGM-2. When the electrical resistance reaches a maximal plateau (−3 days) the medium will be replaced with serum-free endothelial basal medium (EBM; Lonza) containing 1× penicillin-streptomycin-glutamine (Invitrogen). Electrical resistance will be monitored until a minimal plateau is reached (˜24 h). Either HDL from CCHS subjects (depleted of albumin and apoB lipoproteins) or synthetic HDLs will be introduced into the culture medium by removing a volume corresponding to that of the HDL to be added. The maximum volume of each HDL added will not exceed 1/25 of the 400 μl volume of conditioned culture medium in each well. For experiments evaluating the effects of pertussis toxin (PTX), PTX (100 ng/ml) or the PTX buffer (50% glycerol with 50 mM Tris, 10 mM glycine, and 0.5M NaCl, pH 7.5) will be added to EBM during the final 12 h of serum starvation. S1P or HDL will then be added to the medium. Electrical resistance will be monitored through 5 h post addition of agents.

[3] = system: endothelial cell monolayers (HUVECs); details: literature (Schaphorst et al.; Xu et al.); cited from earlier work
Akt activation in HUVECs = test: Multiplex bead array assay of Akt phosphorylation; type: cell-based, human; details: PTX 100 ng/ml 12 h, 3 min; for Inhibition of HDL-induced activation of Akt: antagonists added 15 min before HDL (containing 200 nM S1P); for Inhibition of S1P-induced activation of Akt: antagonists added 15 min before S1P (200 nM)
Experimental: as §1, §2
as §3, with “The medium will then be replaced with endothelial basal medium (EBM) containing 0.1% FBS and the cells grown for 24 h. The medium will then be supplemented with HDL samples (i.e., CCHS subject serum-derived HDL freed of albumin- and apoB-containing lipoproteins) or synthetic HDLs (containing defined amounts of S1P). As described above, this will be done by removing a volume of the conditioned culture medium corresponding to that of the HDL to be added.” left out

Row | Molecule | Activation of ERK1/2 in dermal fibroblasts (dermal fibroblasts) | Induction of MMP1 expression in dermal fibroblasts (dermal fibroblasts) | Effect on Erk1/2 phosphorylation ([1]; 833 nM S1P or 333 μg/ml HDL, time course) | Dose dependence of Erk1/2 activation response ([1]; 3 min treatment) | Effect on lung capillary leakage (lung capillary leakage) | Effect on transendothelial electrical resistance (TEER) ([2]; confluent endothelial monolayers in serum free medium, substance added alone) | Effect on endothelial barrier activity (TEER) in cultured endothelial cells [3] | Inhibition of HDL-induced activation of Akt (Akt activation in HUVECs) | Inhibition of S1P-induced activation of Akt (Akt activation in HUVECs) | Inhibition of HDL-induced activation of Erk1/2 [1] | Inhibition of S1P-induced activation of Erk1/2 [1] | Inhibition of the TEER response to HDL [2] | Inhibition of the TEER response to S1P [2]
1 | CCCCCCCCCCCCCCC[C@@H](O)[C@@H](N)COP(=O)(O)O [DH-S1P, dihydro-S1P] | mediate activation ERK1/2 | induction of matrix metalloproteinase 1 (MMP1) expression |  |  |  |  |  |  |  |  |  |  | 
2 | CCCCCCCCCCCCC/C=C/[C@@H](O)[C@@H](N)COP(=O)(O)O [S1P, sphingosine 1-phosphate] | not reproduced | not reproduced | transient increase in Erk1/2 phosphorylation | dose dependent | greatly reduces lung capillary leakage | dose-dependent increase in TEER | increase endothelial barrier activity |  |  |  |  |  | 
3 | CCCCCCCCc1cccc(NC(=O)[C@H](N)COP(=O)(O)O)c1 [VPC23019] |  |  |  |  |  |  |  | inhibited | inhibited | inhibited | inhibited | inhibited | inhibited
4 | pertussis toxin [PTX] |  |  |  |  |  |  |  | inhibited | inhibited | inhibited | inhibited | completely abrogated | inhibited
